A value given as a limit tells only on which side of the number the result lay.

This is an account of results in patent publication US20160008298A1, “XANTHOHUMOL-BASED COMPOUNDS AND COMPOSITIONS THEREOF, AND METHODS OF MAKING AND USING THE SAME” (Oregon State University, priority 2014, published 2016).

The test system of one series is mice. The following applies: mouse; cited from earlier work.
The nature of series [1]: Dissolution in Seahorse running medium. Type of series: physicochemical. The note with it: 0.1% of FBS, 37° C.

A word on the LD50: it is the dose at which mortality reaches 50%. As for `COc1cc(O)c(CC=C(C)C)c(O)c1C(=O)/C=C/c1ccc(O)cc1` [XN, xanthohumol], the LD50 in the series on mice is above 2000 mg/kg. `COc1cc(O)c(CC=C(C)C)c(O)c1C(=O)CCc1ccc(O)cc1` [DXN, α,β-dihydroxanthohumol]: in series [1], the “concentration dissolved in running medium” value is “up to 25 μM”.
